One may read the IC50 as the concentration that inhibits the measured activity by half.

We go through 31 compounds from EP4745124A1, “NAPHTHALIMIDE-BASED CORONAVIRUS PAPAIN-LIKE PROTEASE INHIBITOR” (Guangzhou National Laboratory, priority 2023, dated 2025).

The target of the assay is T1, SARS-CoV-2 PL^Pro (Severe acute respiratory syndrome coronavirus 2, UniProt P0DTD1).
T1 construct: SARS-CoV-2 PL^Pro catalytic domain (746-1060); made in house
Briefly: biochemical.

[1] abbreviates: SARS-CoV-2 PLPro catalytic domain (746-1060), 10 minutes pre-incubation, read-out: PLpro IC50.

Where two headings read alike, the source gives them in different places.

Turning to `Cc1ccc(N2CCN(C)CC2)cc1C(=O)NC1(c2ccc3c4c(cccc24)C(=O)N3)CC1` [Compound P2, 2-Methyl-5-(4-methylpiperazin-1-yl)-N-(1-(2-oxo-1,2-dihydrobenzo[cd]indol-6-yl)cyclopropyl)benzamide], the 50% inhibitory concentration (IC50) under setting [1] is 40 to 100 nM.
For `Cc1ccc(C2CCNCC2)cc1C(=O)NC1(c2ccc3c4c(cccc24)C(=O)N3C)CC1` [Compound P4, 2-Methyl-N-(1-(1-methyl-2-oxo-1,2-dihydrobenzo[cd]indol-6-yl)cyclopropyl)-5-(piperidin-4-yl)benzamide], the IC50 under setting [1] was in the range of 40 to 100 nM.
Turning to `Cc1ccc(N2C3CCC2CNC3)cc1C(=O)NC1(c2ccc3c4c(cccc24)C(=O)N3C)CC1` [Compound P6, 5-(3,8-diazabicyclo[3.2.1]octan-8-yl)-2-methyl-N-(1-(1-methyl-2-oxo-1,2-dihydrobenzo[cd]indol-6-yl)cyclopropyl)ben zamide], the IC50 is under 40 nM.
As to `Cc1ccc(N2C3CCC2CN(C)C3)cc1C(=O)NC1(c2ccc3c4c(cccc24)C(=O)N3C)CC1` [Compound P8, 2-Methyl-N-(1-(1-methyl-2-oxo-1,2-dihydrobenzo[cd]indol-6-yl)cyclopropyl)-3-methyl-3,8-diazabicyclo[3.2.1]octan-8-yl benzamide], the IC50 is 100 to 1000 nM.
For the compound `Cc1ccc(N2CC3CNCC3C2)cc1C(=O)NC1(c2ccc3c4c(cccc24)C(=O)N3C)CC1` (stereo not shown) [Compound P9, 5-(hexahydropyrrolo[3,4-c]pyrrol-2(1H)-yl)-2-methyl-N-(1-(1-methyl-2-oxo-1,2-dihydrobenzo[cd]indol-6-yl)cyclopropyl)benzamide], under setting [1], the IC50 is under 40 nM.
On the same count and under the same terms, for `Cc1ccc(N2CCNCC2C)cc1C(=O)NC1(c2ccc3c4c(cccc24)C(=O)N3C)CC1` (stereo not shown) [Compound P10, 2-Methyl-N-(1-(1-methyl-2-oxo-1,2-dihydrobenzo[cd]indol-6-yl)cyclopropyl)-5-(2-methylpiperazin-1-yl)benzamide] the value was 100 to 1000 nM.
The compound `Cc1ccc(N2CCNC3(CC3)C2)cc1C(=O)NC1(c2ccc3c4c(cccc24)C(=O)N3C)CC1` [Compound P12, 2-Methyl-N-(1-(1-methyl-2-oxo-1,2-dihydrobenzo[cd]indol-6-yl)cyclopropyl)-5-(4,7-diazaspiro[2,5]octan-7-yl) benzamide] displayed an IC50 of 40 to 100 nM.
For the compound `Cc1ccc(N2CCC(N(C)C)CC2)cc1C(=O)NC1(c2ccc3c4c(cccc24)C(=O)N3C)CC1` [Compound P13, 5-(4-(Dimethylamino)piperidin-1-yl)-2-methyl-N-(1-(1-methyl-2-oxo-1,2-dihydrobenzo[cd]indol-6-yl)cyclopropyl)ben zamide], the IC50 under setting [1] lay within 100 to 1000 nM.
`CCN1CCN(c2ccc(C)c(C(=O)NC3(c4ccc5c6c(cccc46)C(=O)N5C)CC3)c2)C[C@@H]1C` [Compound P14, (S)-5-(4-ethyl-3-methylpiperazin-1-yl)-2-methyl-N-(1-(1-methyl-2-oxo-1,2-dihydrobenzo[cd]indol-6-yl)cyclopropyl)be nzamide]: under setting [1], the IC50 was under 40 nM.
Regarding `Cc1ccc(-n2ccc(N(C)C)c2)cc1C(=O)NC1(c2ccc3c4c(cccc24)C(=O)N3C)CC1` [Compound P15, 5-(3-(dimethylamino)pyrrol-1-yl)-2-methyl-N-(1-(1-methyl-2-oxo-1,2-dihydrobenzo[cd]indol-6-yl)cyclopropyl)benzamide], the IC50 under setting [1] was under 40 nM.
With `Cc1ccc(N2CC(N3C=CC(F)(F)C3)C2)cc1C(=O)NC1(c2ccc3c4c(cccc24)C(=O)N3C)CC1` [Compound P18, 5-(3-(3,3-difluoropyrrol-1-yl)azetidin-1-yl)-2-methyl-N-(1-(1-methyl-2-oxo-1,2-dihydrobenzo[cd]indol-6-yl)cyclopropyl)benzamide], under setting [1], the IC50 fell in the range of 100 to 1000 nM.
Take `Cc1ccc(N2CC3(CCN(C)C3)C2)cc1C(=O)NC1(c2ccc3c4c(cccc24)C(=O)N3C)CC1` [Compound P19]: the IC50 (read-out: PLpro IC50) is 100 to 1000 nM.
Take `Cc1ccc(N2C[C@H]3CN(C)C[C@H]32)cc1C(=O)NC1(c2ccc3c4c(cccc24)C(=O)N3C)CC1` [Compound P20, 2-Methyl-N-(1-(1-methyl-2-oxo-1,2-dihydrobenzo[cd]indol-6-yl)cyclopropyl)-5-((1R,5S)-3-methyl-3,6-diazabicyclo[3. 2.0]heptan-6-yl)benzamide]: the IC50 under setting [1] was in the range of 100 to 1000 nM.
As for `Cc1ccc(N2CC3CC(C2)N3C)cc1C(=O)NC1(c2ccc3c4c(cccc24)C(=O)N3C(C)C)CC1` [Compound P21, N-(1-(1-isopropyl-2-oxo-1,2-dihydrobenzo[cd]indol-6-yl)cyclopropyl)-2-methyl-5-(6-methyl-3,6-diazabicyclo[3.1.1]heptan-3-yl)benzamide], the IC50 is under 40 nM.
On to `Cc1ccc(C2CCN(C)CC2)cc1C(=O)NC1(c2ccc3c4c(cccc24)C(=O)N3C)CC1` [Compound P22, 2-methyl-N-(1-(1-methyl-2-oxo-1,2-dihydrobenzo[cd]indol-6-yl)cyclopropyl)-5-(1-methylpiperidin-4-yl)benzamide], for which the IC50 under setting [1] was 40 to 100 nM.
Same read-out and setting: to `Cc1ccc(N2CC(N3CCN(C)CC3)C2)cc1C(=O)NC1(c2ccc3c4c(cccc24)C(=O)N3C)CC1` [Compound P23, 2-Methyl-N-(1-(1-methyl-2-oxo-1,2-dihydrobenzo[cd]indol-6-yl)cyclopropyl)-5-(3-(4-methylpiperazin-1-yl)azetidin-1-yl)benzamide] belongs 100 to 1000 nM; to `Cc1ccc(N2CC(N3CCCCC3)C2)cc1C(=O)NC1(c2ccc3c4c(cccc24)C(=O)N3C)CC1` [Compound P24, 2-Methyl-N-(1-(1-methyl-2-oxo-1,2-dihydrobenzo[cd]indol-6-yl)cyclopropyl)-5-(3-(piperidin-1-yl)azetidin-1-yl)benzamide], under 40 nM.
The same measure, in the same setting: to `Cc1ccc(N2CCN3CCC[C@@H]3C2)cc1C(=O)NC1(c2ccc3c4c(cccc24)C(=O)N3C)CC1` [Compound P25, (R)-5-(hexahydropyrrolo[1,2-a]pyrazin-2(1H)-yl)-2-methyl-N-(1-(1-methyl-2-oxo-1,2-dihydrobenzo[cd]indol-6-yl)cyclopropyl)benzamide] belongs under 40 nM; to `Cc1ccc(N2CC(N3CCC(F)CC3)C2)cc1C(=O)NC1(c2ccc3c4c(cccc24)C(=O)N3C)CC1` [Compound P26, 5-(3-(4-fluoropiperidin-1-yl)azetidin-1-yl)-2-methyl-N-(1-(1-methyl-2-oxo-1,2-dihydrobenzo[cd]indol-6-yl)cyclopropyl)benzamide], under 40 nM; to `CCN1C(=O)c2cccc3c(C4(NC(=O)c5cc(N6CCN(C)CC6)ccc5C)CC4)ccc1c23` [Compound P27, N-(1-(1-ethyl-2-oxo-1,2-dihydrobenzo[cd]indol-6-yl)cyclopropyl)-2-methyl-5-(4-methylpiperazin-1-yl)benzamide], under 40 nM.
The same measure, in the same setting: for `CCN1C(=O)c2cccc3c(C4(NC(=O)c5cc(N6CC(N7CCC(C)(O)CC7)C6)ccc5C)CC4)ccc1c23` [Compound P28, N-(1-(1-Ethyl-2-oxo-1,2-dihydrobenzo[cd]indol-6-yl)cyclopropyl)-5-(3-(4-hydroxy-4-methylpiperidin-1-yl)azetidin-1-yl)-2-methyl-benzamide] the value was under 40 nM.
Turning to `CCN1C(=O)c2cccc3c(C4(NC(=O)c5cc(N6CC7CC(C6)N7)ccc5C)CC4)ccc1c23` [Compound P29], under “read-out: PLpro IC50”, the IC50 was under 40 nM.
For `Cc1ccc(N2CC(N3CCC(F)C3)C2)cc1C(=O)NC1(c2ccc3c4c(cccc24)C(=O)N3C)CC1` (stereo not shown) [Compound P30, 5-(3-(3-fluoropyrrolidin-1-yl)azetidin-1-yl)-2-methyl-N-(1-(1-methyl-2-oxo-1,2-dihydrobenzo[cd]indol-6-yl)cyclopropyl)benzamide], under setting [1], the IC50 was under 40 nM.
The same measure, in the same setting: for `Cc1ccc(N2CC(N3CCC(F)(F)CC3)C2)cc1C(=O)NC1(c2ccc3c4c(cccc24)C(=O)N3C)CC1` [Compound P31, 5-(3-(4,4-difluoropiperidin-1-yl)azetidin-1-yl)-2-methyl-N-(1-(1-methyl-2-oxo-1,2-dihydrobenzo[cd]indol-6-yl)cyclopropyl)benzamide] the value was 40 to 100 nM.
Same read-out and setting: for `Cc1ccc(N2CC(N3CCC(O)CC3)C2)cc1C(=O)NC1(c2ccc3c4c(cccc24)C(=O)N3C)CC1` [Compound P32, 5-(3-(4-hydroxypiperidin-1-yl)azetidin-1-yl)-2-methyl-N-(1-(1-methyl-2-oxo-1,2-dihydrobenzo[cd]indol-6-yl)cyclopropyl)benzamide] the value was under 40 nM.
`Cc1ccc(N2CC(N3CCOC(C)(C)C3)C2)cc1C(=O)NC1(c2ccc3c4c(cccc24)C(=O)N3C)CC1` [Compound P33, 5-(3-(2,2-dimethylmorpholinyl)azetidin-1-yl)-2-methyl-N-(1-(1-methyl-2-oxo-1,2-dihydrobenzo[cd]indol-6-yl)cyclopropyl)benzamide]: the IC50 (read-out: PLpro IC50) was 100 to 1000 nM.
`Cc1ccc(N2CC(N3CCCCC3C)C2)cc1C(=O)NC1(c2ccc3c4c(cccc24)C(=O)N3C)CC1` (stereo not shown) [Compound P34, 2-Methyl-N-(1-(1-methyl-2-oxo-1,2-dihydrobenzo[cd]indol-6-yl)cyclopropyl)-5-(3-(2-methylpiperidin-1-yl)azetidin-1-yl)benzamide]: the IC50 under setting [1] is under 40 nM.
Regarding `Cc1ccc(N2CC(N3CCS(=O)(=O)CC3)C2)cc1C(=O)NC1(c2ccc3c4c(cccc24)C(=O)N3C)CC1` [Compound P35, 5-(3-(1,1-dioxothiomorpholin)azetidin-1-yl)-2-methyl-N-(1-(1-methyl-2-oxo-1,2-dihydrobenzo[cd]indol-6-yl)cyclopropyl)benzamide], for the setting “read-out: PLpro IC50”, the IC50 was in the range of 100 to 1000 nM.
Regarding `Cc1ccc(N2CC[C@H](N(C)C(C)C)C2)cc1C(=O)NC1(c2ccc3c4c(cccc24)C(=O)N3C)CC1` [Compound P36], the IC50 (read-out: PLpro IC50) is under 40 nM.
Take `Cc1ccc(N2CCC(N3CCCC3)C2)cc1C(=O)NC1(c2ccc3c4c(cccc24)C(=O)N3C)CC1` (stereo not shown) [Compound P37, 5-([1,3'-dipyrrolidin]-1'-yl)-2-methyl-N-(1-(1-methyl-2-oxo-1,2-dihydrobenzo[cd]indol-6-yl)cyclopropyl)benzamide]: the IC50 (read-out: PLpro IC50) lay in the range of 40 to 100 nM.
Regarding `Cc1ccc(N2CCC(CN3CCOCC3)CC2)cc1C(=O)NC1(c2ccc3c4c(cccc24)C(=O)N3C)CC1` [Compound P38, 2-Methyl-N-(1-(1-methyl-2-oxo-1,2-dihydrobenzo[cd]indol-6-yl)cyclopropyl)-5-(4-(morpholinomethyl)piperidin-1-yl)b enzamide], the IC50 under setting [1] is 100 to 1000 nM.
